One may read the pIC50 as the IC50 on a negative log10 scale, so that one unit is a factor of ten.

The data set has as its target T1, microsomal recombinant human cytochrome P450 2A6 (CYP2A6) (Homo sapiens, UniProt P11509).
T1 sequence (P11509 1-494): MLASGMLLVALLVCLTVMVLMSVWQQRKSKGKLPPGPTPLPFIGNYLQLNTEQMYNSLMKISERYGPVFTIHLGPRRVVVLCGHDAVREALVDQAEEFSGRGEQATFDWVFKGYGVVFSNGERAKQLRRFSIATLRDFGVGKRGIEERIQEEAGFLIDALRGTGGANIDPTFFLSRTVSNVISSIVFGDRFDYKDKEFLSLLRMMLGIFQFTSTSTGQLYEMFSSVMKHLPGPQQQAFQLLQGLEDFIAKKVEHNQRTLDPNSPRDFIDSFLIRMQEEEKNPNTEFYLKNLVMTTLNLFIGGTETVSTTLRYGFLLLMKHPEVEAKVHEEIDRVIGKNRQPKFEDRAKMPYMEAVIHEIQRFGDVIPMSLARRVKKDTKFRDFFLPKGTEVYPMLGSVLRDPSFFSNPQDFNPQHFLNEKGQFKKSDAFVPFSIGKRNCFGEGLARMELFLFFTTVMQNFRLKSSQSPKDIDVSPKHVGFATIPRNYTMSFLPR
As to the kind of experiment: Vivid fluorescence-based CYP2A6 inhibition screening. The format is biochemical.

Each structure is given as a SMILES string. pIC50: −log10 of the molar value. Entries after “also recorded” stand apart in the source; their conditions may differ.

For `CCOc1cc(C=O)ccc1O` [Ethyl vanillin, ethyl-vanillin], the pIC50 was 4.16. Under “flavoring agent at 500 μM”, the CYP2A6 inhibition result is given as “near-maximal inhibition”.

As to `COc1cc(C=O)ccc1O` [Vanillin, vanillin], the pIC50 is 4.15. Moreover, the CYP2A6 inhibition entry (flavoring agent at 500 μM) is “near-maximal inhibition”.

`CC(=O)OCCC(C)C` [Isoamyl Acetate, isoamyl acetate]: the pIC50 was less than 3.30. Also, the CYP2A6 inhibition result (flavoring agent up to 500 μM (highest concentration)) was “negligible inhibition; also recorded: no inhibition”.

As for `O=C/C=C/c1ccccc1` [Cinnamaldehyde, trans-cinnamaldehyde], the negative-log IC50 (pIC50) was 5.96.

`O=Cc1ccccc1` [Benzaldehyde, benzaldehyde]: the pIC50 was 5.52.

The values are drawn from publication PMC7422938 (Chemical research in toxicology, 2020).
